Measured values: patent US12275686B2, “NO donor compound, preparation method thereof, pharmaceutical composition comprising same, and use thereof” (SOUTHEAST UNIVERSITY, priority 2022, dated 2025)

How the values were obtained:
[1] = system: mTORC1 and TSC2-P proteins; test: Expression level of myocardial injury marker proteins in myocardial hypoxia mouse, Western blot; format: in vivo; details: hypoxia model mouse pretreated with 20 mg/kg, FIG. 3
Source text: Western Blot gel preparation kit (Biyuntian Biotechnology Co., Ltd., Shanghai), BCA detection kit for protein quantification (Biyuntian Biotechnology Co., Ltd., Shanghai), ionization buffer, wet transfer solution, primary antibody (anti-TSC2-P, Abgent, 1:1000, A-AP3825a; anti-mTORC1, Abcam, 1:1000, ab120224; anti-GAPDH, Bioworld Technology, 1:500, AP0063), secondary antibody (Goat Anti-Rabbit IgG (H+L) HRP, 1:3000, Bioworld Technology, BS13278), 6-8-week-old male Kunming mouse.
The changes of protein expression levels are analyzed based on Western Blot bands.
• (1) Mouse heart tissue protein was extracted and centrifuged at 12,000 rpm for 15 min to collect the protein, the protein was quantified using a BCA kit, and added to boiling water in loading buffer and cook for 5 min for later use; • (2) SDS-PAGE gel was prepared and the sample was loaded to separate protein bands; • (3) After transferring the protein bands to the PVDF membrane, the membrane was blocked with milk to incubate primary and secondary antibodies in sequence. The protein bands were visualized using a chemiluminescence developer to analyze the changes of protein expression in each group, as shown in FIG. 3.

[2] = system: heart of mouse hypoxia model; test: NO release level in the heart of mouse hypoxia model, NO detection kit; format: in vivo; details: mouse hypoxia model (85 mg/kg isoproterenol), 20 mg/kg intraperitoneally before modeling, FIG. 2
Source text: NO detection kit (Biyuntian Biotechnology Co., Ltd., Shanghai), heart tissue homogenate of hypoxia modeling and drug-given mouse, and blank control group mouse, and 6-8-week-old male Kunming mouse.
NO has chemical activity and is rapidly converted into NO3^− and NO2^− in the body, and NO2^− is further converted into NO3^−. NO^3− is reduced to NO2^− […], NO2^− has characteristic absorption at 540 nm, the absorbance is detected at 540 nm by a microplate reader, and the NO concentration is calculated using a standard curve.
• (1) Hypoxia model (85 mg/kg isoproterenol), the drug-given group was intraperitoneally injected with 20 mg/kg compound I1 before hypoxia modeling; • (2) Cardiac tissue homogenate protein was obtained by centrifugation at 12,000 rpm for 15 min; • (3) The working solution in the NO detection kit was prepared, the working solution was added to each group of proteins, after incubation, and each group of proteins was detected with an microplate reader to analyze the NO content in each group, as shown in FIG. 2.

H9c2 cells [3] = test: NO release level in H9c2 cells under normoxia or hypoxia, Griess method; format: cell-based; details: for NO release (%) / NO release amount (%): H9c2 cells, 4 h; for NO release (%): hypoxia (1% O2); for NO release amount (%): normoxia (21% O2)
Experimental: H9c2 cells were revived, cultured with DMEM medium, and placed in a carbon dioxide incubator to allow the cells to adhere to the wall for growth. After the cells grew to reach an appropriate density, cells were inoculated in a multi-well plate and placed in the carbon dioxide incubator for culture for 24 h at 37° C., 5% CO2, and saturated humidity until the cells adhered to the wall, the supernatant was discarded, and 2 mL of fresh DMEM medium was added. Then, a certain concentration (5, 10, 15 μM) of compounds and the reference drug of isosorbide dinitrate were added. After culturing in a normoxic incubator (37° C., 21% O2) or an anoxic incubator (37° C., 1% O2) for 4 h, the supernatant was removed, and the cells in the multi-well plate were collected in 1.5 mL centrifuge tubes and centrifuged at 1000 rpm for 5 min, the supernatant was discarded, 1 mL of PBS was added into the centrifuge tubes to resuspend the cells, and the cells were centrifuged again, the PBS was discarded. 100 μL of cell lysis buffer (special for NO measurement) was added to the centrifuge tubes, placed on ice for half a minute, and then centrifuged for 5 min at 4° C. and 13300 rpm, and the supernatant was collected. 50 μL of the supernatant was taken in a 96-well plate, three parallel groups were set for each sample, and 50 μL of Griess reagent I and 50 μL of Griess reagent II were added in sequence. The OD value of each well was measured at 540 nm with a full-wavelength microplate reader, and the NO concentration was calculated using the standard curve, as shown in Tables 1 and 2.

H9c2 cells [4] = test: Vitality of H9c2 cells under normoxia or hypoxia (CCK8); format: cell-based; details: 4 h; for improvement on the cell viability: normoxic condition, FIG. 1A
Experimental: The cells were washed twice with 5 mL PBS, 1 mL trypsin was added to digest the monolayer cultured H9c2 cells, a single cell suspension was prepared with serum-containing culture medium, and 5000-10000 cells per well were inoculated in a 96-well culture plate. The volume of culture medium per well is 100 μL, and the edge wells are filled with sterilized pure water. The culture plate was moved into a carbon dioxide incubator for culture for 24 h at 37° C., 5% CO2, and saturated humidity until the cells adhere to the wall. 100 μL culture medium in the well was aspirated, 50 μL fresh culture medium was added into the well, and different concentrations of compounds and reference drug isosorbide dinitrate were given respectively to the well. 50 μL drug was added to each well, 3 parallel groups and 1 normoxic group without drug addition as control were set, and concentration gradient of the drug is 10, 1, 0.1, 0.01, 0.001 μM. The normoxic group was incubated in a normal incubator at 5% CO2 and 37° C. for 4 h; and the hypoxic group was incubated in a hypoxic incubator (concentration of 02≤1%) at 37° C. for 4 h. After the culture was completed, 10 μL CCK8 reagent was added to each well and the normoxic group and the hypoxic group continued to be cultured in a normoxic incubator for 4 h, and the culture was terminated. The absorbance of each well was measured at 450 nm with a microplate reader to calculate the cell survival rate of cells at different concentrations, as shown in FIGS. 1A and 1B.

SMILES: CN(N=O)c1ccc(OC(=O)OCc2ccc([N+](=O)[O-])cc2)cc1 [Compound I1, 4-((methylnitroso)amino) phenyl (4-nitrobenzyl) carbonate]
- anti-myocardial hypoxic damage effect [1]: excellent anti-myocardial hypoxic damage effect
- expression of mTORC1 in the hearts ([1]; Western blot): restored to near a level of the normal group
- NO level in the heart [2]: significantly higher than that of the other two groups
- NO release (%) (H9c2 cells [3]; compound 5 μM): 25.24%
- NO release (%) (H9c2 cells [3]; compound 10 μM): 24.38%
- NO release (%) (H9c2 cells [3]; compound 15 μM): 20.15%
- NO release amount (%) (H9c2 cells [3]; compound 5 μM): 0.24%
- NO release amount (%) (H9c2 cells [3]; compound 10 μM): 0.84%
- NO release amount (%) (H9c2 cells [3]; compound 15 μM): 0.16%

SMILES: CN(N=O)c1ccc(OC(=O)OCc2ccc([N+](=O)[O-])cc2Cl)cc1 [Compound I2, 4-((methylnitroso)amino) phenyl (2-chloro-4-nitrobenzyl) carbonate]
- NO release (%) (H9c2 cells [3]; compound 5 μM): 34.75%
- NO release (%) (H9c2 cells [3]; compound 10 μM): 30.96%
- NO release (%) (H9c2 cells [3]; compound 15 μM): 27.37%
- NO release amount (%) (H9c2 cells [3]; compound 5 μM): 1.58%
- NO release amount (%) (H9c2 cells [3]; compound 10 μM): 3.34%
- NO release amount (%) (H9c2 cells [3]; compound 15 μM): 0.93%

SMILES: Cc1cc([N+](=O)[O-])ccc1COC(=O)Oc1ccc(N(C)N=O)cc1 [Compound I3, 4-((methylnitroso)amino) phenyl (2-methyl-4-nitrobenzyl) carbonate]
- NO release (%) (H9c2 cells [3]; compound 5 μM): 40.58%
- NO release (%) (H9c2 cells [3]; compound 10 μM): 45.42%
- NO release (%) (H9c2 cells [3]; compound 15 μM): 43.21%
- NO release amount (%) (H9c2 cells [3]; compound 5 μM): 0.43%
- NO release amount (%) (H9c2 cells [3]; compound 10 μM): 0.92%
- NO release amount (%) (H9c2 cells [3]; compound 15 μM): 0.32%

SMILES: CN(N=O)c1ccc(OC(=O)OCc2ccccc2[N+](=O)[O-])cc1 [Compound I4, 4-((methylnitroso)amino) phenyl (2-nitrobenzyl) carbonate]
- improvement on the cell viability (H9c2 cells [4]; 1 μM): slight improvement on the cell viability
- NO release (%) (H9c2 cells [3]; compound 5 μM): 20.78%
- NO release (%) (H9c2 cells [3]; compound 10 μM): 20.62%
- NO release (%) (H9c2 cells [3]; compound 15 μM): 18.33%
- NO release amount (%) (H9c2 cells [3]; compound 5 μM): 1.02%
- NO release amount (%) (H9c2 cells [3]; compound 10 μM): 2.35%
- NO release amount (%) (H9c2 cells [3]; compound 15 μM): 0.98%

SMILES: CN(N=O)c1ccc(OC(=O)OCc2ccc(Cl)cc2[N+](=O)[O-])cc1 [Compound I5, 4-((methylnitroso)amino) phenyl (2-nitro-4-chlorobenzyl) carbonate]
- NO release (%) (H9c2 cells [3]; compound 10 μM): 0.96%
- NO release amount (%) (H9c2 cells [3]; compound 10 μM): 0.15%

SMILES: CN(N=O)c1ccc(OC(=O)OCc2ccc(Br)cc2[N+](=O)[O-])cc1 [Compound I6, 4-((methylnitroso)amino) phenyl (2-nitro-4-bromobenzyl) carbonate]
- NO release (%) (H9c2 cells [3]; compound 10 μM): 0.94%
- NO release amount (%) (H9c2 cells [3]; compound 10 μM): 0.17%

SMILES: Cc1ccc(COC(=O)Oc2ccc(N(C)N=O)cc2)c([N+](=O)[O-])c1 [Compound I7, 4-((methylnitroso)amino) phenyl (2-nitro-4-methylbenzyl) carbonate]
- NO release (%) (H9c2 cells [3]; compound 10 μM): 1.83%
- NO release amount (%) (H9c2 cells [3]; compound 10 μM): 0.12%

SMILES: CN(N=O)c1ccc(OC(=O)OCc2cc(Cl)ccc2[N+](=O)[O-])cc1 [Compound I8, 4-((methylnitroso)amino) phenyl (2-nitro-5-chlorobenzyl) carbonate]
- NO release (%) (H9c2 cells [3]; compound 10 μM): 0.93%
- NO release amount (%) (H9c2 cells [3]; compound 10 μM): 0.27%

SMILES: Cc1ccc([N+](=O)[O-])c(COC(=O)Oc2ccc(N(C)N=O)cc2)c1 [Compound I9, 4-((methylnitroso)amino) phenyl (2-nitro-5-methylbenzyl) carbonate]
- NO release (%) (H9c2 cells [3]; compound 10 μM): 0.95%
- NO release amount (%) (H9c2 cells [3]; compound 10 μM): 0.23%

SMILES: O=[N+]([O-])O[C@H]1CO[C@H]2[C@@H]1OC[C@H]2O[N+](=O)[O-] [Isosorbide dinitrate, isosorbide dinitrate]
- viability of hypoxic cells (H9c2 cells [4]; hypoxic condition (O2≤1%), 0.001-10 μM, FIG. 1B): a certain improvement on the cell viability at high concentration
- improvement on the cell viability (H9c2 cells [4]; 0.001-10 μM): does not improve the cell viability
- NO release amount (H9c2 cells [3]; hypoxia condition, different concentrations (5, 10, 15 μM)): less than that under the normoxia condition
